Experimental data as given in paper PMC12823633 (Cancer Chemotherapy and Pharmacology, 2026).

How the values were obtained:
CYP2C9 = CYP2C9 (Homo sapiens, UniProt P11712); test: clinical; details: plasma, oral, 25 mg
[1] = Adverse events, DDI evaluation period; assay type: in vivo, human (patients with solid tumors)
CYP2C8 = biological target: T1, CYP2C8 (Homo sapiens, UniProt P10632); test: Clinical DDI: pioglitazone plasma PK with and without TAS-115; details: oral, 15 mg
T1 sequence (P10632 1-490): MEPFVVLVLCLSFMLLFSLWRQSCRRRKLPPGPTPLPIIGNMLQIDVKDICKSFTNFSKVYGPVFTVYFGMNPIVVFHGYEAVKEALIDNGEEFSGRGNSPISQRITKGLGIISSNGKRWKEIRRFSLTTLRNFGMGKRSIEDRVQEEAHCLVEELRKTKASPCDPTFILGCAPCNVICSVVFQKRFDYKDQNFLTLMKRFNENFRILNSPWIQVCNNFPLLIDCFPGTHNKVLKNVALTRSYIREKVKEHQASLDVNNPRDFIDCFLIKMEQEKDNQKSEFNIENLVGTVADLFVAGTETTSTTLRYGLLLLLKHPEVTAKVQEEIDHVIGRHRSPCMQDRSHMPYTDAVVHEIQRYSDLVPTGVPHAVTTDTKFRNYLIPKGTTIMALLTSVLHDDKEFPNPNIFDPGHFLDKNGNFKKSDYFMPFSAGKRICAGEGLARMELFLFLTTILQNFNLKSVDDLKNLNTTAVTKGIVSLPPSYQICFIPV

CYP3A4 = details: human, plasma, oral, 2.5 mg
[2] = After Administration of TAS-115, DDI period (N=18)
[3] = Before Administration of TAS-115 (N=18)
[4] = Entire DDI Evaluation Period (N=18)

Chain of CYP2C9 (P11712 whole entry): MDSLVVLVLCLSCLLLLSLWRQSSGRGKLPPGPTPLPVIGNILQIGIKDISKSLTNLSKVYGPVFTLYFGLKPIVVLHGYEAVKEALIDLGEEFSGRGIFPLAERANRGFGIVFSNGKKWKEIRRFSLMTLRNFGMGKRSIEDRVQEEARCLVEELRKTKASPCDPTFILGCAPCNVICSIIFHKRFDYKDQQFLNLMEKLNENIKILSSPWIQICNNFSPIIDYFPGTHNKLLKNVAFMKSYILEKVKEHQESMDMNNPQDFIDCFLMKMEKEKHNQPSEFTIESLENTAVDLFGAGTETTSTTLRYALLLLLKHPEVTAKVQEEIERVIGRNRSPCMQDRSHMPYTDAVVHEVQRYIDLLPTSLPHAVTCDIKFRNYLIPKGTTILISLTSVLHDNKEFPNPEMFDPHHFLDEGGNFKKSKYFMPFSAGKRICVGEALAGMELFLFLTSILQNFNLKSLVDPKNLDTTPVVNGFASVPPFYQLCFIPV

`CCCCc1nc(Cl)c(CO)n1Cc1ccc(-c2ccccc2-c2nn[nH]n2)cc1` [Losartan, losartan, reference compound] showed an AUC(0-inf) (CYP2C9) of 388 ng·h/mL, an AUC(0-t) (CYP2C9) of 364 ng·h/mL and a Cmax (CYP2C9) of 158 ng/mL. For the same compound, the “Any >=Grade 3 TRAEs Related to Losartan” value [1, 2] was 0 (0.0) N (%), the “Any TRAEs Related to Losartan” value [1, 2] was 1 (5.6) N (%) and the “Any >=Grade 3 TRAEs Related to Losartan” value [1, 3] was 0 (0.0) N (%). For the same compound, the “Any TRAEs Related to Losartan” value [1, 3] was 0 (0.0) N (%), the “TRAE (Grade 1 hypotension) related to losartan” value ([1]; DDI evaluation period, losartan administered after TAS-115) was “one patient” and the “Any >=Grade 3 TRAEs Related to Losartan” value [1, 4] was 0 (0.0) N (%). For the same compound, the “Any TRAEs Related to Losartan” value [1, 4] was 1 (5.6) N (%).

In the case of `CCc1ccc(CCOc2ccc(CC3SC(=O)NC3=O)cc2)nc1` (centres unmarked) [Pioglitazone, pioglitazone, reference compound], the AUC(0-inf) (CYP2C8) was 7710 ng·h/mL, the AUC(0-t) (CYP2C8) was 6340 ng·h/mL and the Cmax (CYP2C8) was 635 ng/mL. The “Any >=Grade 3 TRAEs Related to Pioglitazone” value [1, 2] was 0 (0.0) N (%), the “Any TRAEs Related to Pioglitazone” value [1, 2] was 0 (0.0) N (%) and the “Any >=Grade 3 TRAEs Related to Pioglitazone” value [1, 3] was 0 (0.0) N (%). The “Any TRAEs Related to Pioglitazone” value [1, 3] was 1 (5.6) N (%), the “TRAE (Grade 1 diarrhoea) related to pioglitazone” value ([1]; DDI evaluation period, pioglitazone administered before TAS-115) was “one patient” and the “Any >=Grade 3 TRAEs Related to Pioglitazone” value [1, 4] was 0 (0.0) N (%). The “Any TRAEs Related to Pioglitazone” value [1, 4] was 1 (5.6) N (%).

For `Cc1ncc2n1-c1ccc(Cl)cc1C(c1ccccc1F)=NC2` [Midazolam, midazolam, reference compound], the “Any >=Grade 3 TRAEs Related to Midazolam” value [1, 2] was 0 (0.0) N (%), the “Any TRAEs Related to Midazolam” value [1, 2] was 0 (0.0) N (%) and the “Any >=Grade 3 TRAEs Related to Midazolam” value [1, 3] was 0 (0.0) N (%). For the same compound, the “Any TRAEs Related to Midazolam” value [1, 3] was 0 (0.0) N (%), the “Any >=Grade 3 TRAEs Related to Midazolam” value [1, 4] was 0 (0.0) N (%) and the “Any TRAEs Related to Midazolam” value [1, 4] was 0 (0.0) N (%). For the same compound, the AUC(0-inf) (CYP3A4) was 56.8 ng·h/mL, the AUC(0-t) (CYP3A4) was 55.5 ng·h/mL and the Cmax (CYP3A4) was 21.9 ng/mL.
